Data: ChEMBL document CHEMBL5303573, “Mapping human microbiome drug metabolism by gut bacteria and their genes” (Nature, 2019)

Tests used:
[1] = The drug is tested on Salmonella typhimurium strain: LT2 for biotransformation. The drug concentrations were measured before and after a 12-h incubation by liquid-chromatography-coupled mass spectrometry (LC–MS); conditions: salmonella enterica subsp. enterica, 2 µM
[2] = (§1) The drug is tested on the gut metagenome community of MV14 with ENA study accession number: PRJEB31790 and ENA sample accession number: SAMEA5537495 for biotransformation. The drug concentrations were measured over 9 timepoints collected between 0 and 24 hours of incubation by liquid-chromatography-coupled mass spectrometry (LC–MS); type: ADME; set-up: dose 2 uM, timepoint 0, 1, 2, 4, 6, 8, 12, 18, 24 hours; conditions: 2 µM
[3] = as §1, with “MV03” for “MV14”, “SAMEA5537484” for “SAMEA5537495”; type: ADME; set-up: dose 2 uM, timepoint 0, 1, 2, 4, 6, 8, 12, 18, 24 hours; conditions: 2 µM
[4] = as §1, with “MV21” for “MV14”, “SAMEA5537502” for “SAMEA5537495”; type: ADME; set-up: dose 2 uM, timepoint 0, 1, 2, 4, 6, 8, 12, 18, 24 hours; conditions: 2 µM
[5] = as §1, with “MV06” for “MV14”, “SAMEA5537487” for “SAMEA5537495”; type: ADME; set-up: dose 2 uM, timepoint 0, 1, 2, 4, 6, 8, 12, 18, 24 hours; conditions: 2 µM
[6] = as §1, with “MV15” for “MV14”, “SAMEA5537496” for “SAMEA5537495”; type: ADME; set-up: dose 2 uM, timepoint 0, 1, 2, 4, 6, 8, 12, 18, 24 hours; conditions: 2 µM
[7] = as §1, with “MV22” for “MV14”, “SAMEA5537503” for “SAMEA5537495”; type: ADME; set-up: dose 2 uM, timepoint 0, 1, 2, 4, 6, 8, 12, 18, 24 hours; conditions: 2 µM
[8] = as §1, with “MV05” for “MV14”, “SAMEA5537486” for “SAMEA5537495”; type: ADME; set-up: dose 2 uM, timepoint 0, 1, 2, 4, 6, 8, 12, 18, 24 hours; conditions: 2 µM
[9] = as §1, with “MV08” for “MV14”, “SAMEA5537489” for “SAMEA5537495”; type: ADME; set-up: dose 2 uM, timepoint 0, 1, 2, 4, 6, 8, 12, 18, 24 hours; conditions: 2 µM
[10] = as §1, with “MV02” for “MV14”, “SAMEA5537483” for “SAMEA5537495”; type: ADME; set-up: dose 2 uM, timepoint 0, 1, 2, 4, 6, 8, 12, 18, 24 hours; conditions: 2 µM
[11] = as §1, with “MV27” for “MV14”, “SAMEA5537508” for “SAMEA5537495”; type: ADME; set-up: dose 2 uM, timepoint 0, 1, 2, 4, 6, 8, 12, 18, 24 hours; conditions: 2 µM
Lipase = biological target: T1, Lipase (Bacteroides thetaiotaomicron, UniProt Q8A3J3); experiment: (§2) The drug is tested on Bacteroides thetaiotaomicron strain: VPI-5482 for biotransformation. The drug concentrations were measured before and after a 12-h incubation by liquid-chromatography-coupled mass spectrometry (LC–MS); type: ADME; set-up: dose 2 uM; conditions: 2 µM
T1 sequence (Q8A3J3 whole entry): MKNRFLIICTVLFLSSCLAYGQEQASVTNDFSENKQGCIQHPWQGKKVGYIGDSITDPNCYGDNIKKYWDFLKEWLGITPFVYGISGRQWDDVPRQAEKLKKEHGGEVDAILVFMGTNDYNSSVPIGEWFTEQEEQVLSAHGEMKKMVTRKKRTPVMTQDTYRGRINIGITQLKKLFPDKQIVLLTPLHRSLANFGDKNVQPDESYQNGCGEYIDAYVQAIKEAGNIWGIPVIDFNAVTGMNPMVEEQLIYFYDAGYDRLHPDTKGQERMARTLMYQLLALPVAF

[12] = biological target: T2, Sialic acid-specific acetylesterase (Bacteroides thetaiotaomicron, UniProt Q8A331); experiment: as §2; type: ADME; set-up: dose 2 uM; conditions: 2 µM
T2 sequence (Q8A331 whole entry): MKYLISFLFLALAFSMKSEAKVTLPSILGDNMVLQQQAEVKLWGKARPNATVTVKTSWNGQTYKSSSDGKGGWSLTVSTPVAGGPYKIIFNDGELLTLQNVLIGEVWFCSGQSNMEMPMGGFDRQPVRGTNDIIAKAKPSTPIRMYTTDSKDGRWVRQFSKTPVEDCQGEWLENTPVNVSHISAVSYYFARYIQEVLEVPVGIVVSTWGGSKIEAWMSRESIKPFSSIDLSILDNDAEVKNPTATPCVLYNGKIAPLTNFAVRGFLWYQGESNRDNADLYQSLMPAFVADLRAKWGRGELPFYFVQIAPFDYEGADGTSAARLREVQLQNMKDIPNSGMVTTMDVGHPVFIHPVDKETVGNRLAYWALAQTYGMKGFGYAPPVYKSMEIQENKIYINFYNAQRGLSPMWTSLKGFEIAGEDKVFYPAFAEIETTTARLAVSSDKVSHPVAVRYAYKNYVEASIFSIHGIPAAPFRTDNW

[13] = biological target: T3, Sialic acid-specific 9-O-acetylesterase (Bacteroides thetaiotaomicron, UniProt Q8A0D0); experiment: as §2; type: ADME; set-up: dose 2 uM; conditions: 2 µM
T3 sequence (Q8A0D0 whole entry): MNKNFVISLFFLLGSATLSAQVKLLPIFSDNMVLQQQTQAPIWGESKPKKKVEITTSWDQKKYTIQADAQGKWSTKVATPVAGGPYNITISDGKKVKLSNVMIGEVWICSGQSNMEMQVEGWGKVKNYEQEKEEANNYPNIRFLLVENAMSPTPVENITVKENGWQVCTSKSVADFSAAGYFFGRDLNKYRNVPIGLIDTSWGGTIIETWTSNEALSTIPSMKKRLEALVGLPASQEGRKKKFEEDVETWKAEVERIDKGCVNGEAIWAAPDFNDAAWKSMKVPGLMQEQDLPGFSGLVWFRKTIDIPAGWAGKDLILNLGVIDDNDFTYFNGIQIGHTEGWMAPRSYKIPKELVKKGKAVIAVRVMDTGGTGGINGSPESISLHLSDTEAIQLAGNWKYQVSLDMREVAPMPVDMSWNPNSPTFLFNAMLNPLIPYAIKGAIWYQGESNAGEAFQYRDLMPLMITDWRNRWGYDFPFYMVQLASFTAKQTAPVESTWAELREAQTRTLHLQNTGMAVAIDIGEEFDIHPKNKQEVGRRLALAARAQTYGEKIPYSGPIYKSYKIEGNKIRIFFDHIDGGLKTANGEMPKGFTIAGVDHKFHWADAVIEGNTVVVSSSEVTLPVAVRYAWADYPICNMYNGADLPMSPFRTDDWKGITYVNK

[14] = as §1, with “MV24” for “MV14”, “SAMEA5537505” for “SAMEA5537495”; type: ADME; set-up: dose 2 uM, timepoint 0, 1, 2, 4, 6, 8, 12, 18, 24 hours; conditions: 2 µM
[15] = as §1, with “MV16” for “MV14”, “SAMEA5537497” for “SAMEA5537495”; type: ADME; set-up: dose 2 uM, timepoint 0, 1, 2, 4, 6, 8, 12, 18, 24 hours; conditions: 2 µM
[16] = as §1, with “MV28” for “MV14”, “SAMEA5537509” for “SAMEA5537495”; type: ADME; set-up: dose 2 uM, timepoint 0, 1, 2, 4, 6, 8, 12, 18, 24 hours; conditions: 2 µM

Row | SMILES | Bacterial Biotransformation [1] | Bacterial Biotransformation [2] | Bacterial Biotransformation [3] | Bacterial Biotransformation [4] | Bacterial Biotransformation [5] | Bacterial Biotransformation [6] | Bacterial Biotransformation [7] | Bacterial Biotransformation [8] | Bacterial Biotransformation [9] | Bacterial Biotransformation [10] | Bacterial Biotransformation [11] | Bacterial Biotransformation (Lipase) | Bacterial Biotransformation [12] | Bacterial Biotransformation [13] | Bacterial Biotransformation [14] | Bacterial Biotransformation [15] | Bacterial Biotransformation [16]
1 | CN1[C@@H]2CC[C@H]1C[C@@H](OC(=O)C(CO)c1ccccc1)C2 (some centres undefined) [ATROPINE] | Compound NOT metabolized | – | – | – | – | – | – | – | – | – | – | – | – | – | – | – | –
2 | COc1ccc([C@@H]2Sc3ccccc3N(CCN(C)C)C(=O)[C@@H]2OC(C)=O)cc1 [DILTIAZEM] | – | Compound NOT metabolized | Compound NOT metabolized | Compound NOT metabolized | Compound NOT metabolized | Compound NOT metabolized | Compound NOT metabolized | Compound NOT metabolized | Compound NOT metabolized | Compound NOT metabolized | Compound NOT metabolized | Compound NOT metabolized | Compound NOT metabolized | Compound NOT metabolized | Compound NOT metabolized | Compound NOT metabolized | Compound NOT metabolized
3 | CC(=O)OCC(CCn1cnc2cnc(N)nc21)COC(C)=O [FAMCICLOVIR] | – | Compound metabolized | Compound metabolized | Compound metabolized | Compound metabolized | Compound metabolized | Compound metabolized | Compound metabolized | Compound metabolized | Compound metabolized | Compound metabolized | Compound NOT metabolized | Compound metabolized | Compound metabolized | Compound metabolized | Compound metabolized | Compound metabolized
4 | CC(CCc1ccccc1)NCC(O)c1ccc(O)c(C(N)=O)c1 (centres undefined) [LABETALOL] | Compound NOT metabolized | – | – | – | – | – | – | – | – | – | – | – | – | – | – | – | –
5 | C#C[C@]1(O)CC[C@H]2[C@@H]3CCC4=CC(=O)CC[C@@H]4[C@H]3CC[C@@]21CC [LEVONORGESTREL] | – | – | – | – | – | – | – | – | – | – | – | Compound NOT metabolized | Compound NOT metabolized | Compound NOT metabolized | – | – | –
6 | COC(=O)Nc1nc2ccc(C(=O)c3ccccc3)cc2[nH]1 [MEBENDAZOLE] | Compound NOT metabolized | – | – | – | – | – | – | – | – | – | – | – | – | – | – | – | –
7 | COc1ccc2cc([C@H](C)C(=O)O)ccc2c1 [NAPROXEN] | Compound NOT metabolized | – | – | – | – | – | – | – | – | – | – | – | – | – | – | – | –
8 | C#C[C@]1(OC(C)=O)CC[C@H]2[C@@H]3CCC4=CC(=O)CC[C@@H]4[C@H]3CC[C@@]21C [NORETHINDRONE ACETATE] | – | Compound metabolized | Compound metabolized | Compound metabolized | Compound metabolized | Compound metabolized | Compound metabolized | Compound metabolized | Compound metabolized | Compound metabolized | Compound metabolized | Compound NOT metabolized | Compound NOT metabolized | Compound NOT metabolized | Compound metabolized | Compound metabolized | Compound metabolized
9 | C#C[C@]1(OC(C)=O)CC[C@H]2[C@@H]3CCC4=C/C(=N/O)CC[C@@H]4[C@H]3CC[C@@]21CC [NORGESTIMATE] | Compound NOT metabolized | – | – | – | – | – | – | – | – | – | – | – | – | – | – | – | –
10 | N#Cc1ccc2c(c1)N(CCCN1CCC(O)CC1)c1ccccc1S2 [PERICIAZINE] | – | – | – | – | – | – | – | – | – | – | – | Compound NOT metabolized | Compound NOT metabolized | Compound NOT metabolized | – | – | –
